# From US20040010036A1, “N,N, -Substituted s-Aryl-Isothioureas, N,N,N, -Substituted s-Aryl-Isothioureas and combinatorial libraries thereof” (priority 2002, published 2004)
# Tested on: Streptococcus pyogenes (ATCC# 97-03 14289)
# Test: Anti-microbial screen (percent inhibition of growth, OD 570 nm)
# Format: cell-based
# Details: Spy4H: Streptococcus pyogenes, read at 4 hours, OD 570 nm; Conc 0.1776 mg ml
# Procedure: Streptococcus pyogenes (ATCC# 97-03 14289) was grown in Todd Hewitt Broth (THB) (Difco Laboratories #0492-17-6) overnight until reaching an optical density of (OD=0.636@570 nm) by reading 0.1 ml in a 96 well microtiter plate in a Molecular Devices Thermomax. This preparation was kept frozen as stocks in 30% v/v glycerol in 1.5 ml aliquots at […] until use. Prior to experiments, 6 ml aliquots were thawed and diluted into 50 ml 2×THB. 60 ul of this dilution was added to 92 wells of microtiter plate. To three wells THB (200 ul) was added to serve as a blank and a sterility control. Test compounds in DMSO and appropriate concentrations of DMSO were added to Growth/Solvent Controls at 0 time. Plates were read at 0 time at 570 nm in the Molecular Devices plate reader to obtain compounds correction factors for insoluble or colored compounds. Plates were read again at 4 hours.
# Percent inhibition is calculated with the following formula:
# Color correct=O.D. 0 hr - Blank 0 hr)-(Solvent Control Ohr - Blank 0 hr) [formula]
row,SMILES,inhibition of growth at 177.6 µg/mL [%]
1,COc1ccc(C)cc1/N=C(\Sc1ccc(C)cc1)N(Cc1ccc(C)cc1)Cc1cccc(O)c1 [Cmpd 429],79.5
2,Cc1ccc(CN(Cc2cccc(O)c2)/C(=N/c2ccc(C(F)(F)F)cc2)Sc2cccc(C)c2)cc1 [Cmpd 447],99.5
3,Cc1ccc(CN(Cc2cccc(O)c2)/C(=N/c2cc(Cl)cc(Cl)c2)Sc2cccc(C)c2)cc1 [Cmpd 453],60.5
4,Cc1ccc(CN(Cc2cccc(O)c2)/C(=N/c2ccc(Cl)c([N+](=O)[O-])c2)Sc2cccc(C)c2)cc1 [Cmpd 463],86.7
5,Cc1ccc(CN(Cc2cccc(O)c2)/C(=N/c2ccccc2[N+](=O)[O-])Sc2cccc(C)c2)cc1 [Cmpd 466],69.7
6,Cc1ccc(CN(Cc2cccc(O)c2)/C(=N\c2ccc(Cl)c(C(F)(F)F)c2)Sc2cccc(C)c2)cc1 [Cmpd 473],57.6
7,Cc1ccc(S/C(=N/c2ccc(C(F)(F)F)cc2)N(Cc2ccccc2)Cc2ccc(O)cc2)c(C)c1 [Cmpd 487],82.8
8,Cc1cccc(S/C(=N/Cc2ccc(F)cc2)N(Cc2cccc(O)c2)CC(C)C)c1 [Cmpd 524],89.5
9,Cc1cccc(S/C(=N/c2ccc(C(F)(F)F)cc2)N(Cc2cccc(O)c2)CC(C)C)c1 [Cmpd 527],96.4
10,COc1ccc(C)cc1/N=C(/Sc1cccc(C)c1)N(Cc1cccc(O)c1)CC(C)C [Cmpd 549],62.9
11,COCCN(Cc1ccc(O)cc1)/C(=N\c1cc(Cl)cc(Cl)c1)Sc1ccc(C)cc1 [Cmpd 653],80.2
12,COCCN(Cc1ccc(O)cc1)/C(=N\c1ccc(Cl)c(C(F)(F)F)c1)Sc1ccc(C)cc1 [Cmpd 673],72.8
13,COCCN(Cc1ccc(O)cc1)/C(=N\c1ccc(F)c(F)c1)Sc1ccc(C)cc1 [Cmpd 676],87.5
14,Cc1cccc(S/C(=N\Cc2ccc(F)cc2)N(CCc2ccc(Cl)cc2)Cc2cccc(O)c2)c1 [Cmpd 684],94.1
15,Cc1cccc(S/C(=N\c2cccc(C(F)(F)F)c2)N(CCc2ccc(Cl)cc2)Cc2cccc(O)c2)c1 [Cmpd 686],68.4
16,Cc1cccc(S/C(=N\c2ccc(F)c(Cl)c2)N(CCc2ccc(Cl)cc2)Cc2cccc(O)c2)c1 [Cmpd 694],62.5
17,Cc1cccc(S/C(=N\c2ccccc2[N+](=O)[O-])N(CCc2ccc(Cl)cc2)Cc2cccc(O)c2)c1 [Cmpd 706],63.6
18,CCCCN(Cc1cccc(O)c1)/C(=N\Cc1ccc(F)cc1)Sc1ccccc1 [Cmpd 724],83.3
19,CCCCN(Cc1cccc(O)c1)/C(=N\c1cc(Cl)cc(Cl)c1)Sc1ccccc1 [Cmpd 733],63.5

row,SMILES,inhibition of growth at 177.6 µg/mL [%]
1,CCCCN(Cc1cccc(O)c1)/C(=N\c1ccc(F)c(Cl)c1)Sc1ccccc1 [Cmpd 734],89.6
2,CCCCN(Cc1cccc(O)c1)/C(=N\c1ccc(Cl)c([N+](=O)[O-])c1)Sc1ccccc1 [Cmpd 743],64.2
3,CCCCN(Cc1cccc(O)c1)/C(=N\c1ccc(Cl)c(C(F)(F)F)c1)Sc1ccccc1 [Cmpd 753],66
4,CCCCN(Cc1cccc(O)c1)/C(=N\c1ccc(F)c(F)c1)Sc1ccccc1 [Cmpd 756],71.9
5,COc1cccc(CN(Cc2ccc(O)cc2)/C(=N/c2cc(Cl)cc(Cl)c2)Sc2cccc(OC)c2)c1 [Cmpd 773],68.4
6,COc1cccc(CCN(Cc2cccc(O)c2)/C(=N/c2ccc(F)c(Cl)c2)Sc2ccccc2)c1 [Cmpd 814],57.8
7,Oc1cccc(CN(Cc2ccc(Cl)c(Cl)c2)/C(=N/c2ccc(C(F)(F)F)cc2)Sc2ccccc2)c1 [Cmpd 847],90.3
8,Oc1cccc(CN(Cc2ccc(Cl)c(Cl)c2)/C(=N/c2cc(Cl)cc(Cl)c2)Sc2ccccc2)c1 [Cmpd 853],60.2
9,O=[N+]([O-])c1ccccc1/N=C(\Sc1ccccc1)N(Cc1cccc(O)c1)Cc1ccc(Cl)c(Cl)c1 [Cmpd 866],60.8
10,COc1ccc(C)cc1/N=C(\Sc1ccccc1)N(Cc1cccc(O)c1)Cc1ccc(Cl)c(Cl)c1 [Cmpd 869],62.2
11,COc1cccc(CCN(Cc2ccc(O)cc2)/C(=N/c2ccc(F)c(Cl)c2)Sc2ccccc2)c1 [Cmpd 894],57.7
12,COc1cccc(CCN(Cc2ccc(O)cc2)/C(=N/c2ccc(Cl)c([N+](=O)[O-])c2)Sc2ccccc2)c1 [Cmpd 903],95.7
13,COc1cccc(S/C(=N\Cc2cccc(C)c2)N(CCc2ccc(F)cc2)Cc2cccc(O)c2)c1 [Cmpd 922],84.3
14,COc1cccc(S/C(=N\c2cccc(F)c2)N(CCc2ccc(F)cc2)Cc2cccc(O)c2)c1 [Cmpd 923],63.9
15,COc1cccc(S/C(=N\c2cccc(C(F)(F)F)c2)N(CCc2ccc(F)cc2)Cc2cccc(O)c2)c1 [Cmpd 926],96
16,COc1cccc(S/C(=N\c2cc(Cl)cc(Cl)c2)N(CCc2ccc(F)cc2)Cc2cccc(O)c2)c1 [Cmpd 933],59.8
17,COc1cccc(S/C(=N\c2ccc(F)c(Cl)c2)N(CCc2ccc(F)cc2)Cc2cccc(O)c2)c1 [Cmpd 934],94
18,COc1cccc(S/C(=N\c2ccc(C)c(Cl)c2)N(CCc2ccc(F)cc2)Cc2cccc(O)c2)c1 [Cmpd 935],66.3
19,COCCN(Cc1ccc(O)cc1)/C(=N\c1cc(Cl)cc(Cl)c1)Sc1ccc(C)cc1C [Cmpd 1053],66

# Same assay, conditions: Streptococcus pyogenes; Assay Spy4H; Conc 0.1776 mg ml; plates read at 570 nm at 0 time and at 4 hours
row,SMILES,inhibition of growth at 177.6 µg/mL [%]
1,Cc1ccc(CN(Cc2cccc(O)c2)/C(=N\c2ccc(Cl)c(C(F)(F)F)c2)Sc2ccc(C)cc2)cc1 [Cmpd 433],51.7
2,Cc1ccc(CN(Cc2cccc(O)c2)/C(=N/Cc2ccc(F)cc2)Sc2cccc(C)c2)cc1 [Cmpd 444],56.6
3,COc1ccc(C)cc1/N=C(\Sc1cccc(C)c1)N(Cc1ccc(C)cc1)Cc1cccc(O)c1 [Cmpd 469],53
4,Cc1ccc(S/C(=N\c2cc(Cl)cc(Cl)c2)N(Cc2ccccc2)Cc2ccc(O)cc2)c(C)c1 [Cmpd 493],55.6
5,Cc1ccc(S/C(=N/c2ccc(Cl)c([N+](=O)[O-])c2)N(Cc2ccccc2)Cc2ccc(O)cc2)c(C)c1 [Cmpd 503],57.3
6,Cc1ccc(S/C(=N/c2ccc(Cl)c(C(F)(F)F)c2)N(Cc2ccccc2)Cc2ccc(O)cc2)c(C)c1 [Cmpd 513],52.9
7,Cc1cccc(S/C(=N/Cc2ccccc2)N(Cc2cccc(O)c2)CC(C)C)c1 [Cmpd 521],50.6
8,Cc1cccc(C/N=C(/Sc2cccc(C)c2)N(Cc2cccc(O)c2)CC(C)C)c1 [Cmpd 522],54.6
9,Cc1cccc(S/C(=N/c2cccc(C(F)(F)F)c2)N(Cc2cccc(O)c2)CC(C)C)c1 [Cmpd 526],50
10,Cc1cccc(S/C(=N/c2cc(Cl)cc(Cl)c2)N(Cc2cccc(O)c2)CC(C)C)c1 [Cmpd 533],52
11,CCc1cccc(/N=C(/Sc2ccc(C)cc2)N(CCOC)Cc2ccc(O)cc2)c1 [Cmpd 658],53
12,COCCN(Cc1ccc(O)cc1)/C(=N\c1ccc(Cl)c([N+](=O)[O-])c1)Sc1ccc(C)cc1 [Cmpd 663],54.8
13,COc1ccc(C)cc1/N=C(\Sc1cccc(C)c1)N(CCc1ccc(Cl)cc1)Cc1cccc(O)c1 [Cmpd 709],49.7
14,CCCCN(Cc1cccc(O)c1)/C(=N\c1ccc(C(F)(F)F)cc1)Sc1ccccc1 [Cmpd 727],56.3
15,COc1cccc(CN(Cc2ccc(O)cc2)/C(=N/c2ccc(C(F)(F)F)cc2)Sc2cccc(OC)c2)c1 [Cmpd 767],52.4
16,COc1cccc(CN(Cc2ccc(O)cc2)/C(=N/c2ccc(Cl)c([N+](=O)[O-])c2)Sc2cccc(OC)c2)c1 [Cmpd 783],54.5
17,COc1cccc(CN(Cc2ccc(O)cc2)/C(=N\c2ccc(Cl)c(C(F)(F)F)c2)Sc2cccc(OC)c2)c1 [Cmpd 793],52.4
18,Cc1cccc(C/N=C(\Sc2ccccc2)N(Cc2cccc(O)c2)Cc2ccc(Cl)c(Cl)c2)c1 [Cmpd 842],49.3
19,Oc1cccc(CN(Cc2ccc(Cl)c(Cl)c2)/C(=N/c2cccc(F)c2)Sc2ccccc2)c1 [Cmpd 843],53.4
20,Oc1cccc(CN(Cc2ccc(Cl)c(Cl)c2)/C(=N/c2cccc(C(F)(F)F)c2)Sc2ccccc2)c1 [Cmpd 846],49.3
21,Oc1cccc(CN(Cc2ccc(Cl)c(Cl)c2)/C(=N/c2cccc(Cl)c2)Sc2ccccc2)c1 [Cmpd 852],50
22,Oc1cccc(CN(Cc2ccc(Cl)c(Cl)c2)/C(=N/c2ccc(F)c(Cl)c2)Sc2ccccc2)c1 [Cmpd 854],55.8
23,COc1cccc(S/C(=N\c2ccc(C(F)(F)F)cc2)N(CCc2ccc(F)cc2)Cc2cccc(O)c2)c1 [Cmpd 927],49.4
24,COc1cccc(/N=C(\Sc2cccc(OC)c2)N(CCc2ccc(F)cc2)Cc2cccc(O)c2)c1 [Cmpd 936],56.3
25,COc1cccc(S/C(=N\c2ccc(Cl)c([N+](=O)[O-])c2)N(CCc2ccc(F)cc2)Cc2cccc(O)c2)c1 [Cmpd 943],50.8
26,COc1cccc(S/C(=N/c2ccc(Cl)c(C(F)(F)F)c2)N(CCc2ccc(F)cc2)Cc2cccc(O)c2)c1 [Cmpd 953],54.2
